Consider twelve compounds from patent US4070469A, “Compound for the treatment of bovine mastitis” (priority 1975, dated 1978).

One series concerns Staph.Aureus. The series is described as follows: Minimal bactericidal activity (MBC) in milk, field isolates. Format: cell-based. The following applies: for MBC: Staphylococcus aureus. The text has this:
(§1) The activity of some of said nitrofuryl quinolines derivatives against Strep.uberis and Stap.Aureus in milk has been compared with the activity of some of the compounds so far utilised in the treatment of bovine mastitis. The results are shown in Table I. (The nitrofuryl quinoline derivatives have general formula [drawing 1] the meaning of R, A, R', B, Y, X and Z being given in the Table. R1 =O whenever indicated then the N-oxide is concerned; NF stands for nitrofuryl)
(§2) Minimal Bactericidal/Activity (MBC) of representative Nitrofuryl
(§3) in mcg/ml in milk at pH 7.2 - 7.4. Versus Standards (Field

Another series relates to Strep.uberis. Described as above. Particulars: for MBC: Streptococcus uberis. It counts as cell-based.
Source text: as §1, §2, §3

Series [1] relates to Strep.uberis and Stap.Aureus. The experiment in a line: Activity against mastitis bacteria in presence of milk (Table I, summary in words). It counts as cell-based.
Source text: as §1

A short description of series [2]: Residue of active compound in milk of the cow. It counts as in vivo. Particulars: bovine, milk, 500 mg in 7 ml P.E.G. base. How it is done: Said four compounds were then tested for the length of time they could be detected in the milk of the cow. For this purpose 500 mg in 7 ml of a polyethylene glycol (P.E.G.) base of each compound were administered to several cows and the residue of active compound in milk were measured in mcg/ml after 24, 32 and 40 hours respectively.

The test system of another series is udder. The series is described as follows: Number of leucocytes (somatic cells) in milk / irritation of the udder. Format: in vivo, cow. The following applies: for number of leucocytes (sematic cells) in milk, 40 hrs.: 40 hrs after 500 mg in 7 ml P.E.G. base; for number of leucocytes (sematic cells) in milk, 48 hrs.: 48 hrs after 500 mg in 7 ml P.E.G. base; for number of leucocytes (sematic cells) in milk, 56 hrs.: 56 hrs after 500 mg in 7 ml P.E.G. base; for number of leucocytes (sematic cells) in milk, before: before administration (baseline). How it is done: Thereafter 500 mg of each of said compounds in 7 ml of a P.E.G. base and also 7 ml of said base above were administered to several cows and the number of leucocytes (sematic cells) in 10^6 per ml of milk were measured before administration and 40, 48 and 56 hours thereafter. The numbers of leucocytes present indicate the degree of irritation of the udder.

Setting [3] is: in milk at pH 7.2 - 7.4, field isolate 2337, read-out: Minimal Bactericidal Activity (MBC), Staph.Aureus 2337.
Setting [4] is: in milk at pH 7.2 - 7.4, field isolate 2372, read-out: Minimal Bactericidal Activity (MBC), Staph.Aureus 2372.
[5] abbreviates: in milk at pH 7.2 - 7.4, field isolate 60B, read-out: Minimal Bactericidal Activity (MBC), Strep.uberis 60B.
Where [6] appears, read: in milk at pH 7.2 - 7.4, field isolate 127A, read-out: Minimal Bactericidal Activity (MBC), Strep.uberis 127A.
Where [7] appears, read: read-out: Minimal Bactericidal Activity (MBC), Staph.Aureus 2337.
Where [8] appears, read: read-out: Minimal Bactericidal Activity (MBC), Staph.Aureus 2372.
Setting [9] is: read-out: Minimal Bactericidal Activity (MBC), Strep.uberis 60B.
[10] abbreviates: read-out: Minimal Bactericidal Activity (MBC), Strep.uberis 127A.
Where [11] appears, read: in milk at pH 7.2 - 7.4, field isolate 2337.
The mark [12] stands for this setting: in milk at pH 7.2 - 7.4, field isolate 2372.
[13] abbreviates: in milk at pH 7.2 - 7.4, field isolate 60B.
Setting [14] is: in milk at pH 7.2 - 7.4, field isolate 127A.

Values after ≈ are worked out from the molar mass of the structure shown. Read-outs that look alike come from different tables or passages of the source.

As for `COc1ccc2c(-c3ccc([N+](=O)[O-])o3)cc[n+]([O-])c2c1` [Compound 19], the MBC (usually the smallest concentration meeting the test's criterion for killing) in the series on Staph.Aureus (setting [3]) is 0.5 µg/mL (≈ 1.75 µM). In addition, the minimal bactericidal concentration (MBC) in the series on Staph.Aureus (setting [4]) worked out at 0.5 µg/mL (≈ 1.75 µM). The MBC with Strep.uberis (setting [5]) came to 0.12 µg/mL (≈ 0.419 µM). Besides, the minimal bactericidal concentration (MBC) with Strep.uberis (setting [6]) is 0.5 µg/mL (≈ 1.75 µM). For the same compound, in series [1], the “activity in presence of milk (in words)” value is listed as “significant activity in milk”. In series [2], this compound returned a concentration at 24 h of 26500 ng/mL and a concentration at 32 h of 5000 ng/mL. Besides, in the series on udder, the “number of leucocytes (sematic cells) in milk, 40 hrs.” value (“number of leucocytes … 40 hrs.” for short) is reported as 5 10^6 per ml; the “number of leucocytes (sematic cells) in milk, 48 hrs.” value (“number of leucocytes … 48 hrs.” for short) is on record as 3 10^6 per ml; the “number of leucocytes (sematic cells) in milk, 56 hrs.” value (“number of leucocytes … 56 hrs.” for short) is reported as 2 10^6 per ml; the “number of leucocytes (sematic cells) in milk, before” value (“number of leucocytes … before” for short) was 0.60 10^6 per ml.
In the case of `Cc1cc(-c2ccc([N+](=O)[O-])o2)c2ccc(O)cc2[n+]1[O-]` [Compound 22], the MBC in the series on Staph.Aureus (setting [3]) was determined as 1 µg/mL (≈ 3.49 µM). Further, the MBC in the series with Staph.Aureus (setting [4]) stood at 0.5 µg/mL (≈ 1.75 µM). Further, the minimum bactericidal concentration (MBC) in the series with Strep.uberis (setting [5]) is 0.12 µg/mL (≈ 0.419 µM). Besides, the MBC in the series with Strep.uberis (setting [6]) was 0.5 µg/mL (≈ 1.75 µM). Moreover, in series [1], the “activity in presence of milk (in words)” value is on record as “significant activity in milk”. The same compound had a concentration at 24 h in series [2] of 20000 ng/mL. Moreover, in the series on udder, the “number of leucocytes … 40 hrs.” value is recorded as 5 10^6 per ml; the “number of leucocytes … 48 hrs.” value was 5 10^6 per ml; the “number of leucocytes … 56 hrs.” value is 3.15 10^6 per ml; the “number of leucocytes … before” value is on record as 0.28 10^6 per ml.
For `CCOc1ccc2c(-c3ccc([N+](=O)[O-])o3)cc(C(=O)O)[n+]([O-])c2c1` [Compound 26], the MBC with Staph.Aureus (setting [3]) worked out at 1 µg/mL (≈ 2.9 µM). Moreover, in the series with Staph.Aureus (setting [4]), the MBC is 1 µg/mL (≈ 2.9 µM). Also, the minimal bactericidal concentration (MBC) in the series on Strep.uberis (setting [5]) came out at 0.03 µg/mL (≈ 0.0871 µM). Moreover, in the series with Strep.uberis (setting [6]), the minimal bactericidal concentration (MBC) was found to be 1 µg/mL (≈ 2.9 µM). In addition, the “activity in presence of milk (in words)” value in series [1] is on record as “significant activity in milk”. Also, in series [2], the concentration at 24 h came out at 12000 ng/mL and the concentration at 32 h turned out to be 5000 ng/mL. Besides, in the series on udder, the “number of leucocytes … 40 hrs.” value is on record as > 7.5 10^6 per ml; the “number of leucocytes … 48 hrs.” value was 3 10^6 per ml; the “number of leucocytes … 56 hrs.” value is listed as 2.65 10^6 per ml; the “number of leucocytes … before” value is 0.22 10^6 per ml.
Consider `CC[C@H]1OC(=O)[C@H](C)[C@@H](O[C@H]2C[C@@](C)(OC)[C@@H](O)[C@H](C)O2)[C@H](C)[C@@H](O[C@@H]2O[C@H](C)C[C@H](N(C)C)[C@H]2O)[C@](C)(O)C[C@@H](C)C(=O)[C@H](C)[C@@H](O)[C@]1(C)O` [Erythremycin, reference compound], for which the minimal bactericidal concentration (MBC) in the series with Staph.Aureus (setting [3]) is 0.78 µg/mL (≈ 1.06 µM); with Staph.Aureus (setting [4]), 6.25 µg/mL (≈ 8.52 µM); with Strep.uberis (setting [5]), 0.39 µg/mL (≈ 0.531 µM); in the series on Strep.uberis (setting [6]) it was 3.12 µg/mL (≈ 4.25 µM).
In the case of `O=C1OC(CN2CCOCC2)CN1/N=C/c1ccc([N+](=O)[O-])o1` (centres unmarked) [Furaltadone, reference compound], the minimum bactericidal concentration (MBC) in the series on Staph.Aureus (setting [3]) is 10 µg/mL (≈ 30.8 µM); in the series with Staph.Aureus (setting [4]), 10 µg/mL (≈ 30.8 µM); in the series on Strep.uberis (setting [5]), 1 µg/mL (≈ 3.08 µM); in the series on Strep.uberis (setting [6]), over 10 µg/mL.
In the case of `O=C1OCCN1/N=C/c1ccc([N+](=O)[O-])o1` [Furazolidone, reference compound], the MBC was over 10 µg/mL in the series on Staph.Aureus (setting [3]), over 10 µg/mL in the series with Staph.Aureus (setting [4]), 10 µg/mL (≈ 44.4 µM) in the series on Strep.uberis (setting [5]) and over 10 µg/mL in the series on Strep.uberis (setting [6]).
As for `NC[C@H]1O[C@H](O[C@H]2[C@H](O)[C@@H](O[C@H]3O[C@H](CO)[C@@H](O)[C@H](N)[C@H]3O)[C@H](N)C[C@@H]2N)[C@H](O)[C@@H](O)[C@@H]1O` [Kanamycin, reference compound], the minimal bactericidal concentration (MBC) came out at 12.5 µg/mL (≈ 25.8 µM) in the series with Staph.Aureus (setting [7]), 12.5 µg/mL (≈ 25.8 µM) in the series on Staph.Aureus (setting [8]), 100 µg/mL (≈ 206 µM) with Strep.uberis (setting [9]) and 100 µg/mL (≈ 206 µM) in the series on Strep.uberis (setting [10]).
As for `CN(C)[C@@H]1C(=O)C(C(N)=O)=C(O)[C@@]2(O)C(=O)C3=C(O)c4c(O)cccc4[C@@](C)(O)[C@H]3[C@H](O)[C@@H]12` [Oxytetracyclin, reference compound], the MBC with Staph.Aureus (setting [7]) is 25 µg/mL (≈ 54.3 µM); in the series with Staph.Aureus (setting [8]), 50 µg/mL (≈ 109 µM); with Strep.uberis (setting [9]), 0.78 µg/mL (≈ 1.69 µM); with Strep.uberis (setting [10]), over 50 µg/mL.
Consider `CC1(C)S[C@@H]2[C@H](NC(=O)Cc3ccccc3)C(=O)N2[C@H]1C(=O)O` [Penicillin G, reference compound], for which the minimum bactericidal concentration (MBC) in the series on Staph.Aureus (setting [3]) is over 50 µg/mL; in the series with Staph.Aureus (setting [4]), over 50 µg/mL; in the series with Strep.uberis (setting [5]) it was 0.06 µg/mL (≈ 0.179 µM); in the series with Strep.uberis (setting [6]) it was 1.56 µg/mL (≈ 4.67 µM).
`CO[C@H]1/C=C/O[C@@]2(C)Oc3c(C)c(O)c4c(O)c(cc(O)c4c3C2=O)NC(=O)/C(C)=C\C=C\[C@H](C)[C@H](O)[C@@H](C)[C@@H](O)[C@@H](C)[C@H](OC(C)=O)[C@@H]1C` [Rifamycin, reference compound]: the MBC is 0.12 µg/mL (≈ 0.172 µM) with Staph.Aureus (setting [3]), 0.12 µg/mL (≈ 0.172 µM) in the series on Staph.Aureus (setting [4]), 3.12 µg/mL (≈ 4.47 µM) with Strep.uberis (setting [5]) and over 50 µg/mL in the series on Strep.uberis (setting [6]).
Turning to Necmycin [reference compound], the “Minimal Bactericidal Activity (MBC), Staph.Aureus 2337” value in the series on Staph.Aureus (setting [11]) was 12.5 µg/mL. Besides, the “Minimal Bactericidal Activity (MBC), Staph.Aureus 2372” value in the series with Staph.Aureus (setting [12]) was 12.5 µg/mL. The “Minimal Bactericidal Activity (MBC), Strep.uberis 60B” value in the series with Strep.uberis (setting [13]) stood at 200 µg/mL. The “Minimal Bactericidal Activity (MBC), Strep.uberis 127A” value in the series with Strep.uberis (setting [14]) was 200 µg/mL.
With Spiramycin [reference compound], the “Minimal Bactericidal Activity (MBC), Staph.Aureus 2337” value in the series with Staph.Aureus (setting [11]) stood at 25 µg/mL. Moreover, the “Minimal Bactericidal Activity (MBC), Staph.Aureus 2372” value with Staph.Aureus (setting [12]) turned out to be 25 µg/mL. Also, the “Minimal Bactericidal Activity (MBC), Strep.uberis 60B” value in the series with Strep.uberis (setting [13]) was found to be 1.56 µg/mL. In the series with Strep.uberis (setting [14]), the “Minimal Bactericidal Activity (MBC), Strep.uberis 127A” value was determined as 12.5 µg/mL.
